Reference: patent US5126327A, “Melanocyte-stimulating hormone inhibitor and external preparation containing the same” (Lion Corporation, priority 1989, dated 1992)
Residues, ends and D or L forms follow the SMILES beside them. No end group written: not given here.

Tests used:
[1] = test system: hair follicle melanocytes; assay: MSH-antagonizing effect: eumelanin production in cultured skin grafts, specimen pre-incubated with grafts before α-MSH (Example 2); format: cell-based, yellow mice (C 57 BL/6J-A'); parameters: key: ±: weak; +: strong; conditions: skin grafts cultured in Ham's F-12 at 37° C. for 2 days; for Eumelanin production, 10^-9 M of α-MSH and 10^-8 M of specimen added: microscope observation at hair follicles
Experimental: (§1) Skin grafts (about 1 mm×1 mm) of yellow mice (C 57 BL/6J-A') (7.5 days after the birth) containing hair follicle melanocytes were cultured in Ham's F-12 culture medium at 37° C. for 2 days. The culture media used were: (i) Ham's F-12 medium containing α-MSH, (ii) that containing both α-MSH and the compound of the present invention, i.e., the compound of the present invention and the skin grafts had been incubated in a Ham's F-12 medium so as to interact the compounds with a receptor on the melanocyte surface of the skin and then the resultant was contacted with α-MSH in a fresh Ham's F-12 medium and (iii) that containing no additive. After completion of the culture followed by fixation with 10% formalin, specimens were prepared by an ordinary method.

[2] = test system: pigmented spots (chloasmata or freckles); assay: External preparation applied to pigmented spots of patients; format: in vivo, human; conditions: for Fading/relief of pigmented spots versus comparative cream / Skin trouble during or after use of the cream: cream containing 0.001 wt. % of compound; for Fading/relief of pigmented spots versus comparative cream: applied twice a day for two months, eight male and female patients; for Skin trouble during or after use of the cream: twice a day for two months
Excerpt: The cream thus prepared was applied to pigmented spots (chloasmata or freckles) of eight male and female patients twice a day (in the morning and evening) for two months.

[3] = test system: hair follicle melanocytes; assay: MSH-inhibiting effect: eumelanin production in cultured skin grafts, specimen pre-mixed with α-MSH (Example 10); format: cell-based, yellow mice (C 57 BL/6J-A'); parameters: key: ±: weak; +: strong; conditions: for Eumelanin production, 10^-9 M of α-MSH and 10^-8 M of specimen added: α-MSH and specimen mixed first, then skin grafts added, Ham's F-12, 37° C., 2 days
Experimental: as §1, with “i.e., α-MSH and” for “i.e.,”, “were mixed” for “and the skin grafts had been incubated in a Ham's F-12 medium”, “each other” for “the compounds with a receptor on the melanocyte surface of the skin”, “skin grafts were added thereto,” for “resultant was contacted with α-MSH in a fresh Ham's F-12 medium”

Row | Skin trouble during or after use of the cream [2] | Compound | Eumelanin production, 10^-9 M of α-MSH and 10^-8 M of specimen added [1] | also measured
1 | – | CSCC[C@H](NC(C)=O)C(=O)N[C@@H](CCC(=O)O)C(=O)N[C@@H](Cc1c[nH]cn1)C(=O)N[C@@H](CO)C(=O)N[C@@H](CCCNC(=N)N)C(=O)N[C@@H](Cc1c[nH]c2ccccc12)C(=O)NCC(=O)N[C@@H](CCCCN)C(N)=O [Compound No. 14, Ac--Met--Glu--His--Ser--Arg--Trp--Gly--Lys--NH2] (Ac-MEHSRWGK-NH2) | ± | –
2 | no skin trouble was observed | CSCC[C@H](NC(=O)[C@H](CO)NC(=O)[C@H](Cc1ccc(O)cc1)NC(=O)[C@H](CO)NC(C)=O)C(=O)N[C@@H](CCC(=O)O)C(=O)N[C@@H](Cc1c[nH]cn1)C(=O)N[C@@H](CO)C(=O)N[C@@H](CCCNC(=N)N)C(=O)N[C@@H](Cc1c[nH]c2ccccc12)C(=O)NCC(=O)N[C@@H](CCCCN)C(=O)N1CCC[C@H]1C(=O)N[C@H](C(N)=O)C(C)C [Compound No. 40, Ac--Ser--Tyr--Ser--Met--Glu--His--Ser--Arg--Trp--Gly--Lys--Pro--Val--NH2] | ± | Fading/relief of pigmented spots versus comparative cream [2]: far more faded
3 | no skin trouble was observed | CC[C@H](C)[C@H](N)C(=O)N[C@@H](CC(C)C)C(=O)N[C@@H](CC(C)C)C(=O)N[C@@H](C)C(=O)N[C@@H](CS)C(=O)N[C@@H](C)C(=O)N[C@@H](CCCNC(=N)N)C(=O)N[C@H](C(=O)N[C@@H](CO)C(=O)N1CCC[C@H]1C(=O)NCC(=O)N[C@@H](CCCNC(=N)N)C(=O)N[C@@H](CCCNC(=N)N)C(=O)O)[C@@H](C)CC [Compound No. 113, Ile--Leu--Leu--Ala--Cys--Ala--Arg--Ile--Ser--Pro--Gly--Arg--Arg] (H-ILLACARISPGRR-OH) | – | –
4 | – | CC[C@H](C)[C@H](NC(C)=O)C(=O)N[C@@H](CC(C)C)C(=O)N[C@@H](CC(C)C)C(=O)N[C@@H](C)C(=O)N[C@@H](CS)C(=O)N[C@@H](C)C(=O)N[C@@H](CCCNC(=N)N)C(=O)N[C@H](C(=O)N[C@@H](CO)C(=O)N1CCC[C@H]1C(=O)NCC(=O)N[C@@H](CCCNC(=N)N)C(=O)N[C@@H](CCCNC(=N)N)C(N)=O)[C@@H](C)CC [Compound No. 116, Ac--Ile--Leu--Leu--Ala--Cys--Ala--Arg--Ile--Ser--Pro--Gly--Arg--Arg--NH2] (Ac-ILLACARISPGRR-NH2) | – | Eumelanin production, 10^-9 M of α-MSH and 10^-8 M of specimen added [3]: ±; Relief of pigmented spots versus comparative milky lotion ([2]; milky lotion containing 0.0001 % of compound, same method as Example 3): relieved the pigmented spots
5 | no skin trouble was observed | CC[C@H](C)[C@H](NC(=O)[C@H](CC(C)C)NC(=O)[C@H](CC(C)C)NC(=O)[C@H](CC(C)C)NC(=O)[C@H](CCC(N)=O)NC(=O)[C@H](CC(C)C)NC(=O)[C@H](C)NC(=O)[C@H](Cc1c[nH]cn1)NC(=O)[C@@H](N)CC(C)C)C(=O)N[C@@H](CC(C)C)C(=O)N[C@@H](CC(C)C)C(=O)N[C@@H](C)C(=O)N[C@@H](CS)C(=O)N[C@@H](C)C(=O)N[C@@H](CCCNC(=N)N)C(=O)N[C@H](C(=O)N[C@@H](CO)C(=O)N1CCC[C@H]1C(=O)NCC(=O)N[C@@H](CCCNC(=N)N)C(=O)N[C@@H](CCCNC(=N)N)C(=O)O)[C@@H](C)CC [Compound No. 132, Leu--His--Ala--Leu--Gln--Leu--Leu--Leu--Ile--Leu--Leu--Ala--Cys--Ala--Arg--Ile--Ser--Pro--Gly--Arg--Arg] (H-LHALQLLLILLACARISPGRR-OH) | – | –
6 | – | CC[C@H](C)[C@H](NC(=O)[C@H](CC(C)C)NC(=O)[C@H](CC(C)C)NC(=O)[C@H](CC(C)C)NC(=O)[C@H](CCC(N)=O)NC(=O)[C@H](CC(C)C)NC(=O)[C@H](C)NC(=O)[C@H](Cc1c[nH]cn1)NC(=O)[C@H](CC(C)C)NC(C)=O)C(=O)N[C@@H](CC(C)C)C(=O)N[C@@H](CC(C)C)C(=O)N[C@@H](C)C(=O)N[C@@H](CS)C(=O)N[C@@H](C)C(=O)N[C@@H](CCCNC(=N)N)C(=O)N[C@H](C(=O)N[C@@H](CO)C(=O)N1CCC[C@H]1C(=O)NCC(=O)N[C@@H](CCCNC(=N)N)C(=O)N[C@@H](CCCNC(=N)N)C(N)=O)[C@@H](C)CC [Compound No. 135, Ac--Leu--His--Ala--Leu--Gln--Leu--Leu--Leu--Ile--Leu--Leu--Ala--Cys--Ala--Arg--Ile--Ser--Pro--Gly--Arg--Arg--NH2] (Ac-LHALQLLLILLACARISPGRR-NH2) | – | Eumelanin production, 10^-9 M of α-MSH and 10^-8 M of specimen added [3]: ±
7 | – | Ac--Cys--Cys--Trp--Arg--Ser--His--Gln--Pro--NH2 (Ac-CCWRSHQP-NH2; cysteine pairing not given here) [compound 74] | ± | –
8 | – | Ac--Cys--His--Cys--Cys--Trp--Arg--Ser--His--Gln--Pro--Ala--Arg--Pro--NH2 (Ac-CHCCWRSHQPARP-NH2; cysteine pairing not given here) [Compound No. 85] | ± | Fading/relief of pigmented spots versus comparative cream [2]: relieved the pigmented spots
9 | – | α-MSH: melanocyte-stimulating hormone (melanotropin), peptide hormone that activates melanocytes; stimulus in the skin graft test (SYSMEHFRWGKPV; ends and bridges not checked; UniProt P01189 138-150, looked up) [reference compound] | – | Eumelanin production, 10^-9 M of α-MSH added ([3]; α-MSH alone, skin grafts cultured in Ham's F-12 at 37° C. for 2 days): +; Eumelanin production, 10^-9 M of α-MSH added ([1]; α-MSH alone): +
